Several values for one entry are separate records, joined by “and”; a condition that tells them apart may be missing. Equal entries are not always repeated.
Key:
[1] = tested on: T helper (TH) cells (CD45^+CD4^+ T cells) in tumor-infiltrating lymphocytes; test: Example 2: flow cytometry, percentage of TH cells in TILs; type: in vivo, Mus musculus
Experimental: (§1) Mice were sacrificed by CO2 euthanasia at the end of the study duration, and the connective tissue around tumor was resected. The tumor samples were then weighed and cut equally into three sections if the tumor weight over 400 mg. The tumor tissue was prepared for the isolation of tumor-infiltrating lymphocytes (TILs). The rest of one section was fixed in 10% formaldehyde and embedded in paraffin; the other was stored at a temperature below −70° C.
(§2) The tumor samples were dissected into smaller fragments using scalpels and then digested with a cocktail of collagenase, DNase I, and Hyaluronidase (Collagenase #C5138, DNase I #D5025, Hyaluronidase #H6254, SigmaAldrich) for at least 2 hours.
(§3) Cells were stained with the fluorescently conjugated surface antibodies and incubated for 30 minutes at 4° C., and then resuspended in staining buffer for flow cytometric analysis. Flow cytometry was done using a Navios EX Flow Cytometer (Beckman Coulter). Data were analyzed using the Kaluza Analysis Software (Beckman Coulter).

[2] = tested on: Dendritic cells in tumor-infiltrating lymphocytes; test: Example 2: flow cytometry, percentage of Dendritic cells in TILs; type: in vivo, Mus musculus; conditions: individual animals and Mean
Experimental: as §1, §2, §3

[3] = G2: OBI-3424 (0.3 mg/kg), individual animals, 0.3 mg/kg
[4] = G3: OBI-3424 (1 mg/kg), group Mean
[5] = G3: OBI-3424 (1 mg/kg), individual animals, 1 mg/kg
[6] = G2: OBI-3424 (0.3 mg/kg), 0.3 mg/kg
[7] = G2: OBI-3424 (0.3 mg/kg), 0.3 mg/kg, mean
[8] = G3: OBI-3424 (1 mg/kg), 1 mg/kg
[9] = G3: OBI-3424 (1 mg/kg), 1 mg/kg, mean

Structure (SMILES): C[C@H](OP(=O)(N1CC1)N1CC1)c1ccc([N+](=O)[O-])c(Oc2cccc(C(=O)N(C)C)c2)c1 [OBI-3424, (S)-1-(3-(3-N,N-dimethylaminocarbonyl)phenoxyl-4-mtrophenyl)-1-ethyl-N,N′-bis(ethylene)phosphoramidate]
- PD-1^+ TH cells (CD45^+CD4^+ PD-1^+) TH Gated % [1, 3]: 98.48% and 81.16% and 94.89% and 90.86% and 99.60% and 98.76%
- PD-1^+ TH cells (CD45^+CD4^+ PD-1^+) Total % [1, 3]: 10.86% and 7.88% and 7.14% and 20.09% and 13.06% and 13.65%
- TH cells (CD45^+CD4^+) CD45^+ Gated % [1, 3]: 59.01% and 26.17% and 17.42% and 32.52% and 29.44% and 36.50%
- TH cells (CD45^+CD4^+) Cell count (×10^5) [1, 3]: 21.45 ×10^5 and 19.84 ×10^5 and 40.61 ×10^5 and 4.73 ×10^5 and 32.34 ×10^5 and 10.02 ×10^5
- TH cells (CD45^+CD4^+) Total % [1, 3]: 11.03% and 9.70% and 7.52% and 22.11% and 13.12% and 13.82%
- CD25^+ TH cells (CD45^+CD4^+ CD25^+) Total % [1, 4]: 3.32%
- CD25^+ TH cells (CD45^+CD4^+CD25^+) Cell count (×10^5) [1, 4]: 2.83 ×10^5
- CD25^+ TH cells (CD45^+CD4^+CD25^+) TH Gated % [1, 4]: 13.39%
- CD69^+ TH cells (CD45^+CD4^+CD69^+) Cell count (×10^5) [1, 4]: 12.24 ×10^5
- CD69^+ TH cells (CD45^+CD4^+CD69^+) TH Gated % [1, 4]: 61.30%
- CD69^+ TH cells (CD45^+CD4^+CD69^+) Total % [1, 4]: 15.55%
- Foxp3^+ Treg cells (CD45^+CD4^+CD25^+Foxp3^+) Cell count (×10^5) [1, 4]: 0.07 ×10^5
- Foxp3^+ Treg cells (CD45^+CD4^+CD25^+Foxp3^+) TH Gated % [1, 4]: 3.04%
- Foxp3^+ Treg cells (CD45^+CD4^+CD25^+Foxp3^+) Total % [1, 4]: 0.09%
- PD-1^+ TH cells (CD45^+CD4^+ PD-1^+) Cell count (×10^5) [1, 4]: 19.54 ×10^5
- PD-1^+ TH cells (CD45^+CD4^+ PD-1^+) TH Gated % [1, 4]: 97.01%
- PD-1^+ TH cells (CD45^+CD4^+ PD-1^+) Total % [1, 4]: 24.35%
- TH cells (CD45^+CD4^+) CD45^+ Gated % [1, 4]: 41.85%
- TH cells (CD45^+CD4^+) Cell count (×10^5) [1, 4]: 20.13 ×10^5
- TH cells (CD45^+CD4^+) Total % [1, 4]: 25.05%
- CD25^+ TH cells (CD45^+CD4^+ CD25^+) Total % [1, 5]: 1.46% and 2.88% and 2.69% and 5.06% and 4.55% and 3.26%
- CD25^+ TH cells (CD45^+CD4^+CD25^+) Cell count (×10^5) [1, 5]: 0.42 ×10^5 and 3.63 ×10^5 and 1.90 ×10^5 and 5.00 ×10^5 and 3.39 ×10^5 and 2.64 ×10^5
- CD25^+ TH cells (CD45^+CD4^+CD25^+) TH Gated % [1, 5]: 5.51% and 11.47% and 14.05% and 20.81% and 18.53% and 9.97%
- CD69^+ TH cells (CD45^+CD4^+CD69^+) Cell count (×10^5) [1, 5]: 4.74 ×10^5 and 19.21 ×10^5 and 9.19 ×10^5 and 10.91 ×10^5 and 12.59 ×10^5 and 16.82 ×10^5
- CD69^+ TH cells (CD45^+CD4^+CD69^+) TH Gated % [1, 5]: 61.50% and 60.62% and 67.91% and 45.46% and 68.87% and 63.43%
- CD69^+ TH cells (CD45^+CD4^+CD69^+) Total % [1, 5]: 16.35% and 15.22% and 13.01% and 11.04% and 16.92% and 20.76%
- Foxp3^+ Treg cells (CD45^+CD4^+CD25^+Foxp3^+) Cell count (×10^5) [1, 5]: 0.02 ×10^5 and 0.08 ×10^5 and 0.07 ×10^5 and 0.12 ×10^5 and 0.04 ×10^5 and 0.11 ×10^5
- Foxp3^+ Treg cells (CD45^+CD4^+CD25^+Foxp3^+) TH Gated % [1, 5]: 4.64% and 2.22% and 3.57% and 2.45% and 1.41% and 3.92%
- Foxp3^+ Treg cells (CD45^+CD4^+CD25^+Foxp3^+) Total % [1, 5]: 0.07% and 0.06% (2×) and 0.10% and 0.12% and 0.13%
- PD-1^+ TH cells (CD45^+CD4^+ PD-1^+) Cell count (×10^5) [1, 5]: 7.02 ×10^5 and 29.44 ×10^5 and 11.76 ×10^5 and 23.76 ×10^5 and 18.24 ×10^5 and 27.01 ×10^5
- PD-1^+ TH cells (CD45^+CD4^+ PD-1^+) TH Gated % [1, 5]: 96.86% and 94.38% and 95.57% and 98.57% and 97.07% and 99.62%
- PD-1^+ TH cells (CD45^+CD4^+ PD-1^+) Total % [1, 5]: 24.22% and 23.33% and 16.66% and 24.05% and 24.52% and 33.34%
- TH cells (CD45^+CD4^+) CD45^+ Gated % [1, 5]: 37.76% and 41.33% and 35.50% and 40.55% and 38.34% and 57.62%
- TH cells (CD45^+CD4^+) Cell count (×10^5) [1, 5]: 7.25 ×10^5 and 31.20 ×10^5 and 12.31 ×10^5 and 24.11 ×10^5 and 18.79 ×10^5 and 27.11 ×10^5
- TH cells (CD45^+CD4^+) Total % [1, 5]: 25.00% and 24.72% and 17.44% and 24.40% and 25.26% and 33.47%
- CD86^+ DC cells (CD45^+CD11c^+CD86^+) Cell count [2, 6]: 6.36 ×10^5 and 14.34 ×10^5 and 27.59 ×10^5 and 1.25 ×10^5 and 15.63 ×10^5 and 4.71 ×10^5
- CD86^+ DC cells (CD45^+CD11c^+CD86^+) Total % [2, 6]: 3.27% and 7.01% and 5.11% and 5.82% and 6.34% and 6.50%
- CD91^+ DC cells (CD45^+CD11c^+CD91^+) Cell count [2, 6]: 0.18 ×10^5 and 0.16 ×10^5 and 0.54 ×10^5 and 0.02 ×10^5 and 0.22 ×10^5 and 0.04 ×10^5
- CD91^+ DC cells (CD45^+CD11c^+CD91^+) Total % [2, 6]: 0.09% (2×) and 0.08% (2×) and 0.10% and 0.06%
- DC cells (CD45^+CD11c^+) CD45+ Gated % [2, 6]: 32.90% and 30.81% and 44.83% and 19.60% and 24.30% and 36.70%
- DC cells (CD45^+CD11c^+) Cell count [2, 6]: 10.62 ×10^5 and 23.35 ×10^5 and 105.79 ×10^5 and 2.74 ×10^5 and 25.44 ×10^5 and 9.18 ×10^5
- DC cells (CD45^+CD11c^+) Total % [2, 6]: 5.46% and 11.42% and 19.59% and 12.80% and 10.32% and 12.66%
- CD86^+ DC cells (CD45^+CD11c^+CD86^+) Cell count [2, 7]: 11.65 ×10^5
- CD86^+ DC cells (CD45^+CD11c^+CD86^+) Total % [2, 7]: 5.68%
- CD91^+ DC cells (CD45^+CD11c^+CD91^+) Cell count [2, 7]: 0.19 ×10^5
- CD91^+ DC cells (CD45^+CD11c^+CD91^+) Total % [2, 7]: 0.08%
- DC cells (CD45^+CD11c^+) CD45+ Gated % [2, 7]: 31.52%
- DC cells (CD45^+CD11c^+) Cell count [2, 7]: 29.52 ×10^5
- DC cells (CD45^+CD11c^+) Total % [2, 7]: 12.04%
- CD86^+ DC cells (CD45^+CD11c^+CD86^+) Cell count [2, 8]: 2.23 ×10^5 and 10.59 ×10^5 and 5.46 ×10^5 and 6.73 ×10^5 and 6.98 ×10^5 and 7.11 ×10^5
- CD86^+ DC cells (CD45^+CD11c^+CD86^+) Total % [2, 8]: 7.68% and 8.39% and 7.73% and 6.81% and 9.38% and 8.78%
- CD91^+ DC cells (CD45^+CD11c^+CD91^+) Cell count [2, 8]: 0.04 ×10^5 (2×) and 0.10 ×10^5 and 0.06 ×10^5 (2×) and 0.08 ×10^5
- CD91^+ DC cells (CD45^+CD11c^+CD91^+) Total % [2, 8]: 0.14% and 0.08% (2×) and 0.09% and 0.06% and 0.07%
- DC cells (CD45^+CD11c^+) CD45+ Gated % [2, 8]: 23.54% and 31.09% and 41.01% and 19.89% and 35.18% and 28.58%
- DC cells (CD45^+CD11c^+) Cell count [2, 8]: 4.40 ×10^5 and 23.57 ×10^5 and 13.84 ×10^5 and 12.22 ×10^5 and 16.67 ×10^5 and 14.15 ×10^5
- DC cells (CD45^+CD11c^+) Total % [2, 8]: 15.16% and 18.68% and 19.60% and 12.37% and 22.41% and 17.47%
- CD86^+ DC cells (CD45^+CD11c^+CD86^+) Cell count [2, 9]: 6.52 ×10^5
- CD86^+ DC cells (CD45^+CD11c^+CD86^+) Total % [2, 9]: 8.13%
- CD91^+ DC cells (CD45^+CD11c^+CD91^+) Cell count [2, 9]: 0.06 ×10^5
- CD91^+ DC cells (CD45^+CD11c^+CD91^+) Total % [2, 9]: 0.09%
- DC cells (CD45^+CD11c^+) CD45+ Gated % [2, 9]: 29.88%
- DC cells (CD45^+CD11c^+) Cell count [2, 9]: 14.14 ×10^5
- DC cells (CD45^+CD11c^+) Total % [2, 9]: 17.62%

Source: US20240216401A1, “COMBINATION THERAPY BY USING AKR1C3-ACTIVATED COMPOUND WITH IMMUNE CHECKPOINT INHIBITOR” (OBI Pharma, Inc., priority 2021, published 2024)
